Assay results published in PubChem BioAssay (NCI).
Values joined by “and” are separate entries in the source; they are usually repeats but may differ in a detail not shown here. Equal entries are not always repeated.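 Each compound was tested at five concentrations against cells in 96-well plates for 48 hours. GI50: concentration for 50% inhibition of growth. TGI denotes the concentration required for complete inhibition of growth.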

Columns and labels:
Assay in all cases: NCI-60 cell line screen, 48 h
SF-295 CNS = system: SF-295 CNS
EKVX NSCLC = system: EKVX NSCLC
OVCAR-3 ovarian = system: OVCAR-3 ovarian
UACC-257 melanoma = system: UACC-257 melanoma
HCT-15 colon = system: HCT-15 colon
HT29 colon = system: HT29 colon
UO-31 renal = system: UO-31 renal
HOP-62 NSCLC = system: HOP-62 NSCLC
SK-OV-3 ovarian = system: SK-OV-3 ovarian
SF-539 CNS = system: SF-539 CNS

Structure (SMILES) | GI50 (SF-295 CNS) | TGI (SF-295 CNS) | GI50 (EKVX NSCLC) | TGI (EKVX NSCLC) | GI50 (OVCAR-3 ovarian) | TGI (OVCAR-3 ovarian) | GI50 (UACC-257 melanoma) | TGI (UACC-257 melanoma) | GI50 (HCT-15 colon) | TGI (HCT-15 colon) | GI50 (HT29 colon) | TGI (HT29 colon) | GI50 (UO-31 renal) | TGI (UO-31 renal) | GI50 (HOP-62 NSCLC) | TGI (HOP-62 NSCLC) | GI50 (SK-OV-3 ovarian) | TGI (SK-OV-3 ovarian) | GI50 (SF-539 CNS) | TGI (SF-539 CNS)
COc1ccc2c(c1)C(=O)/C(=C/c1cccc(OCC(=O)c3ccccc3)c1)O2 | 20 µM | 38.1 µM | 9.88 µM | 29.1 µM | 1.83 µM | 3.36 µM | 18.8 µM | 33.5 µM | 2.42 µM | 6.83 µM | 3.1 µM | 7.56 µM | 1.59 µM | 3.09 µM | 14.5 µM | 28.5 µM | 15.8 µM | 29.2 µM | 3.79 µM | 13.8 µM
CNC(=O)OCc1nc(SSC(C)(C)C)n(C)c1COC(=O)NC | – | 31.7 µM | – | 20.7 µM | – | 4.81 µM | – | 7.64 µM | – | 4.14 µM | – | 13.3 µM | – | 20.3 µM | – | 31.1 µM | – | 31.1 µM | – | 10.6 µM
CSC(SC)(C(=O)O)c1cc(-c2c(Cl)cccc2Cl)no1 | – | > 100 µM | – | > 100 µM | – | > 100 µM | – | > 100 µM | – | 41.9 µM | – | > 100 µM | – | 92.2 µM | – | > 100 µM | – | > 100 µM | – | > 100 µM
COc1ccc(C=O)cc1O[Si](C)(C)C(C)(C)C | – | > 100 µM | – | > 100 µM | – | > 100 µM | – | > 100 µM | – | > 100 µM | – | > 100 µM | – | > 100 µM | – | > 100 µM | – | > 100 µM | – | > 100 µM
O=C1NC(=S)S/C1=C/c1ccc2c(c1)OCO2 | 88.3 µM | > 100 µM | 88.4 µM | > 100 µM | 65.1 µM | > 100 µM | > 100 µM | > 100 µM | > 100 µM | > 100 µM | > 100 µM | > 100 µM | 5.8 µM | > 100 µM | > 100 µM | > 100 µM | > 100 µM | > 100 µM | > 100 µM | > 100 µM
Cc1cn(-c2cc(NC(=O)c3cccc(C#Cc4cccc5[nH]nc(N)c45)c3)cc(C(F)(F)F)c2)cn1 | 4.26 µM | 28.4 µM | 7.38 µM | > 100 µM | 11.1 µM | 83.1 µM | 6.59 µM | 78.3 µM | 4.49 µM | > 100 µM | 2.55 µM | 17.7 µM | 2.79 µM | 26.5 µM | 3.99 µM | 18.3 µM | 22.2 µM | > 100 µM | 1.3 µM | 14.3 µM
O=C(Nc1ccc(C(F)(F)F)cc1[N+](=O)[O-])C(=O)C1NC(=S)NC1=O (stereo not drawn) | – | > 100 µM | – | > 100 µM | – | > 100 µM | – | > 100 µM | – | > 100 µM | – | > 100 µM | – | > 100 µM | – | > 100 µM | – | > 100 µM | – | > 100 µM
Cc1ccc(C)c(NC(=O)CC2Sc3ccccc3NC2=O)c1 (stereo not drawn) | – | > 100 µM | – | > 100 µM | 14.6 µM and 30.3 µM | 23.7 µM and 58.4 µM | – | > 97.1 µM | – | > 100 µM | 31.4 µM and > 100 µM | > 100 µM | 14.5 µM and 30 µM | 23 µM and 55.7 µM | – | 34.1 µM and 48.1 µM | – | 38.3 µM and 48.3 µM | – | 41.2 µM and 68.8 µM
CCN(CC)CCCC(CCl)Nc1ccnc2cc(Cl)ccc12 (stereo not drawn) | 13.1 µM and 12.6 µM | 26.3 µM and 28.6 µM | 30.4 µM and 29.1 µM | 87.2 µM and > 100 µM | 10.9 µM and 6.23 µM | 34.7 µM and 28 µM | 3.78 µM and 14.6 µM | 15.3 µM and 31.1 µM | 24.9 µM and 23.9 µM | > 100 µM | 14.7 µM and 6.38 µM | > 100 µM | 16.6 µM and 21.5 µM | 37 µM and > 100 µM | 25.7 µM and 28.7 µM | 71.8 µM and > 100 µM | > 100 µM | > 100 µM | 10.7 µM and 11.4 µM | 24.8 µM and 27.5 µM
CC1(C)N=C(N)N=C(N)N1c1ccc(CCC(=O)Nc2ccc(S(=O)(=O)F)cc2)c(Cl)c1 | 1.09 µM | > 100 µM | 2.78 µM | > 100 µM | 9.86 µM | > 100 µM | > 42.5 µM | > 100 µM | 2.92 µM | > 100 µM | 0.15 µM | > 100 µM | 63.6 µM | > 100 µM | 1.86 µM | > 100 µM | 8.56 µM | > 100 µM | 0.509 µM | > 38.7 µM
COCCOC(=O)C1=C(O)c2ccccc2S(=O)(=O)N1C | – | > 100 µM | – | > 100 µM | – | > 100 µM | – | > 100 µM | – | > 100 µM | – | > 100 µM | – | > 100 µM | – | > 100 µM | – | > 100 µM | – | > 100 µM
O=C1C(=O)c2ccccc2C(O)=C1C(C1=C(O)c2ccccc2C(=O)C1=O)c1ccc(Cl)cc1 | – | 13.8 µM | – | 32.1 µM | – | 11.4 µM | – | 17 µM | – | 32 µM | – | 20.9 µM | – | 24.5 µM | – | 13.1 µM | – | 33.5 µM | – | 32.9 µM
CC(C)C(O)(C(C)C)C(C)C | – | > 100 µM | – | > 100 µM | – | > 100 µM | – | > 100 µM | – | > 100 µM | – | > 100 µM | – | > 100 µM | – | > 100 µM | – | > 100 µM | – | > 100 µM
CS(=O)(=O)CCNCc1coc(-c2ccc3ncnc(Nc4ccc(OCc5ccccc5)cc4)c3c2)c1 | 4.39 µM | 9.19 µM | 1.25 µM | > 25 µM | 3.46 µM | 13.7 µM | 3.67 µM | 7.39 µM | 4.15 µM | 9.53 µM | 3.4 µM | 7.77 µM | 2.86 µM | 6.95 µM | 5.03 µM | 11.1 µM | 1.71 µM | > 16.2 µM | 4.25 µM | 8.82 µM
COC(=O)c1ccc2[nH]c(O)c(C(=Nc3ccc(N(C)C(=O)CN4CCN(C)CC4)cc3)c3ccc4c(c3)OCO4)c2c1 | 0.754 µM | 2.16 µM | 1.4 µM | 3.45 µM | 0.638 µM | 2.23 µM | 2.27 µM | 6.77 µM | 1.52 µM | 5.8 µM | 0.553 µM | > 27.8 µM | 1.3 µM | 3.71 µM | 0.939 µM | 4.53 µM | 0.197 µM | 1.19 µM | 0.341 µM | 1.31 µM
